Source: ChEMBL document CHEMBL4715830, “Design, synthesis and biological evaluation of suramin-derived dual antagonists of the proinflammatory G protein-coupled receptors P2Y and GPR17” (Eur J Med Chem, 2020)
Activity calls are given as the source filed them.

What was measured:
[1] = molecular target: P2Y purinoceptor 4 (Homo sapiens) (UniProt P51582); test: Antagonist activity at human P2Y4 receptor expressed in human 1321N1 cells assessed as inhibition of UTP-induced intracellular calcium influx at 10 to 100 uM preincubated for 20 mins followed by UTP addition measured at 0.4 secs interval for 60 times by Oregon Green BAPTA-1/AM dye-based fluorescence assay; format: functional, cell-based; details: dose 10-100 µM
Chain of P2Y purinoceptor 4 (Homo sapiens) (P51582 whole entry): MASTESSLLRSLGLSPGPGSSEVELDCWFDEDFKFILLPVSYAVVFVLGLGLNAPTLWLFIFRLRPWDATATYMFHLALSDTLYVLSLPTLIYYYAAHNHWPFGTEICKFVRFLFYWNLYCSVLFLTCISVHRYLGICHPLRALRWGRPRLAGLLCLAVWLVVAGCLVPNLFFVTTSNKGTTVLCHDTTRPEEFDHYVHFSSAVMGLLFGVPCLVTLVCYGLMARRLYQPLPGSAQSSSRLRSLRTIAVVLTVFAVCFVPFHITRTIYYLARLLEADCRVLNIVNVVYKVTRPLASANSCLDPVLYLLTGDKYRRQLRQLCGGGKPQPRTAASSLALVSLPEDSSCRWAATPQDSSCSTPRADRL

[2] = molecular target: P2Y purinoceptor 6 (Rattus norvegicus) (UniProt Q63371); test: Antagonist activity at rat P2Y6 receptor expressed in human 1321N1 cells assessed as inhibition of UDP-induced intracellular calcium influx at 10 to 100 uM preincubated for 20 mins followed by UDP addition measured at 0.4 secs interval for 60 times by Oregon Green BAPTA-1/AM dye-based fluorescence assay; format: functional, cell-based; details: dose 10-100 µM
Chain of P2Y purinoceptor 6 (Rattus norvegicus) (Q63371 whole entry): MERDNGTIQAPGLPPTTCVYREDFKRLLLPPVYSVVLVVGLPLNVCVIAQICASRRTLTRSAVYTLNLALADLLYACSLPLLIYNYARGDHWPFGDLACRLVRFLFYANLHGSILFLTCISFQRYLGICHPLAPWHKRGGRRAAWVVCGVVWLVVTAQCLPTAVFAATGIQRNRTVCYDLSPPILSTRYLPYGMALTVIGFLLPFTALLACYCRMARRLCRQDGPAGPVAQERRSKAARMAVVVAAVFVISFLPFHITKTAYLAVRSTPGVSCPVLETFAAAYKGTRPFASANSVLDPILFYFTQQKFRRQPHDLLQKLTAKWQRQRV

[3] = molecular target: P2Y purinoceptor 1 (Homo sapiens) (UniProt P47900); test: Antagonist activity at human P2Y1 receptor expressed in human 1321N1 cells assessed as inhibition of ADP-induced intracellular calcium influx at 10 uM preincubated for 20 mins followed by ADP addition measured at 0.4 secs interval for 60 times by Oregon Green BAPTA-1/AM dye-based fluorescence assay; format: functional, cell-based
Chain of P2Y purinoceptor 1 (Homo sapiens) (P47900 whole entry): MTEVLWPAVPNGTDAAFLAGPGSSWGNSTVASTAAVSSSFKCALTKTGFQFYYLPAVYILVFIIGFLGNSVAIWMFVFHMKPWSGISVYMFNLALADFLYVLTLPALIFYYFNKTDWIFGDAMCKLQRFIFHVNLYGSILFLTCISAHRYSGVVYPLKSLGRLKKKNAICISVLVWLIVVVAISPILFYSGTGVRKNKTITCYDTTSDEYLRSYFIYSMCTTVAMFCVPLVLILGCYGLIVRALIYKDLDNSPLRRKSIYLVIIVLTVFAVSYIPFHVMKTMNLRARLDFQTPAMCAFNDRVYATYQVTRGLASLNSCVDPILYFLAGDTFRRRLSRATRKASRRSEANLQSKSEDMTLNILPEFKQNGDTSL

[4] = molecular target: P2Y purinoceptor 12 (Homo sapiens) (UniProt Q9H244); test: Antagonist activity at recombinant human Gi/Go-coupled GP2Y12 receptor expressed in CHOK1 cells assessed as inhibition of 2-(Methylthio)ADP-induced inhibition of beta-arrestin recruitment at 10 uM by pathhunter assay; format: cell-based; details: CHO-K1
Chain of P2Y purinoceptor 12 (Homo sapiens) (Q9H244 whole entry): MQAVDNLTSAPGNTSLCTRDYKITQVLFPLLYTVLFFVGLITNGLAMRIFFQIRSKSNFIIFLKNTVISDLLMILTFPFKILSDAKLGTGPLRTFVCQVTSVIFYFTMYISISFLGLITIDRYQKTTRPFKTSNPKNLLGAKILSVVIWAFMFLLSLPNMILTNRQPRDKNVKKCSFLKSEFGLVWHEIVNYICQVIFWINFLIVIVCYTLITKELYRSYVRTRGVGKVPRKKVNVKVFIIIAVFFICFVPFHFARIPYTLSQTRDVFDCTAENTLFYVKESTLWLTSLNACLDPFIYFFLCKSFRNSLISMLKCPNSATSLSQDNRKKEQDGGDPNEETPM

[5] = molecular target: T1, P2Y purinoceptor 14 (Homo sapiens) (UniProt Q15391); test: Antagonist activity at recombinant human Gi/Go-coupled GP2Y14 receptor expressed in CHOK1 cells assessed as inhibition of […]-induced inhibition of beta-arrestin recruitment at 10 uM by pathhunter assay; format: cell-based
T1 sequence (whole entry): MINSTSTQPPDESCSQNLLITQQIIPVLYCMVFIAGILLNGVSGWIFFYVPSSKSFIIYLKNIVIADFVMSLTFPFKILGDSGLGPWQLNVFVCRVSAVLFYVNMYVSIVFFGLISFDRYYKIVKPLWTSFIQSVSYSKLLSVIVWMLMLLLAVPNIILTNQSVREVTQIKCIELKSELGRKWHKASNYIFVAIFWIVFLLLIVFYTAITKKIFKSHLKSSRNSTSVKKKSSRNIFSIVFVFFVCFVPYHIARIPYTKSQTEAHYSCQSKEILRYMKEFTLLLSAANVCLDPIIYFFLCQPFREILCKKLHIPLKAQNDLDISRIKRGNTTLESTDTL

Measured: inhibition

Cc1cccc(NC(=O)c2cccc(NC(=O)Nc3cccc(C(=O)O)c3)c2)c1
inactive: all assays above

Cc1ccc(C(=O)Nc2ccc(S(=O)(=O)Nc3cccc([N+](=O)[O-])c3)cc2)cc1
inactive: all assays above

O=C(Nc1ccc(S(=O)(=O)Oc2cccc([N+](=O)[O-])c2)cc1)c1cccc(F)c1
inactive: all assays above

O=C(Nc1ccc(S(=O)(=O)Oc2cccc([N+](=O)[O-])c2)cc1)c1ccc(Cl)cc1
inactive: all assays above

Cc1ccc(C(=O)Nc2ccc(S(=O)(=O)Oc3cccc([N+](=O)[O-])c3)cc2)cc1
inactive: all assays above

Cc1cccc(C(=O)Nc2cccc(S(=O)(=O)Oc3cccc([N+](=O)[O-])c3)c2)c1
inactive: all assays above

O=C(Nc1ccc(S(=O)(=O)Oc2cccc([N+](=O)[O-])c2)cc1)c1ccc(Cl)c(Cl)c1
inactive: all assays above

Cc1cccc(NC(=O)c2cccc(NC(=O)c3cccc([N+](=O)[O-])c3)c2)c1
inactive: all assays above

Cc1cccc(C(=O)Nc2ccc(NC(=O)Nc3cccc(C(=O)O)c3)cc2)c1
inactive: all assays above

Cc1cccc(NC(=O)c2cccc(NC(=O)c3ccc([N+](=O)[O-])cc3)c2)c1
inactive: all assays above

COC(=O)c1cccc(NC(=O)Nc2cccc(C(=O)Nc3cccc(C)c3)c2)c1
inactive: all assays above

Cc1cccc(NC(=O)c2ccc(NC(=O)c3ccc([N+](=O)[O-])cc3)cc2)c1
inactive: all assays above

O=C(Nc1cccc(S(=O)(=O)Oc2cccc([N+](=O)[O-])c2)c1)c1cccc(F)c1
inactive: all assays above

O=C(Nc1ccc(S(=O)(=O)Oc2cccc([N+](=O)[O-])c2)cc1)c1cccc(C(F)(F)F)c1
inactive: all assays above

CC(=O)c1cccc(C(=O)Nc2ccc(S(=O)(=O)Oc3cccc([N+](=O)[O-])c3)cc2)c1
inactive: all assays above

Cc1cccc(C(=O)Nc2ccc(S(=O)(=O)Oc3cccc(C#N)c3)cc2)c1
inactive: all assays above

Cc1cccc(C(=O)Nc2ccc(NC(=O)c3ccc([N+](=O)[O-])cc3)cc2)c1
inactive: all assays above

Cc1cccc(C(=O)Nc2ccc(S(=O)(=O)NCc3cccc(Cl)c3)cc2)c1
inactive: all assays above

Cc1cccc(C(=O)Nc2ccc(S(=O)(=O)Nc3cccc([N+](=O)[O-])c3)cc2)c1
inactive: all assays above

CCC(=O)c1cccc(C(=O)Nc2ccc(S(=O)(=O)Oc3cccc([N+](=O)[O-])c3)cc2)c1
inactive: all assays above

Cc1cccc(C(=O)Nc2cccc(NC(=O)c3cccc([N+](=O)[O-])c3)c2)c1
inactive: all assays above

COC(=O)c1cccc(NC(=O)Nc2cccc(NC(=O)c3cccc(C)c3)c2)c1
inactive: all assays above

COc1cccc(C(=O)Nc2ccc(S(=O)(=O)Oc3cccc([N+](=O)[O-])c3)cc2)c1
inactive: all assays above

Cc1cccc(C(=O)Nc2ccc(NC(=O)c3cccc([N+](=O)[O-])c3)cc2)c1
inactive: all assays above

Cc1cccc(C(=O)Nc2ccc(S(=O)(=O)Oc3ccc([N+](=O)[O-])cc3)cc2)c1
inactive: all assays above

O=C(Nc1cccc(S(=O)(=O)Oc2cccc([N+](=O)[O-])c2)c1)c1ccc(Cl)cc1
inactive: all assays above

COC(=O)c1cccc(NC(=O)Nc2ccc(NC(=O)c3cccc(C)c3)cc2)c1
inactive: all assays above
